Data taken from patent US20240043403A1, “HETEROARYL CARBOXAMIDE COMPOUND” (Astellas Pharma Inc., priority 2020, published 2024).
pIC50: −log10 of the molar value. Counter-ions that a name gives are not always drawn.

Tests used:
B16-F1 cells = assay: Evaluation of antitumor effect in syngeneic mouse model bearing mouse melanoma cell line B16-F1; type: in vivo; conditions: po, 240 h, C57BL/6J mice bearing B16-F1, read-out: Antitumor effect (relative tumor growth inhibition); for inhibition in vivo at 0.03 mg/kg: 0.03 mg/kg orally once daily for 10 days; for inhibition in vivo at 0.3 mg/kg: 0.3 mg/kg orally once daily for 10 days
Procedure: Test Example 3: Evaluation of Antitumor Effect in Syngeneic Mouse Model Bearing Mouse Melanoma Cell Line B16-F1
A cell suspension liquid prepared by suspending B16-F1 cells (ATCC, CRL-6323) in PBS at 2.0×10^6 cells/mL was subcutaneously inoculated into 5-week-old female mice (C57BL/6J from Charles River Laboratories Japan, Inc.) in a volume of 50 μL. 5 days after the inoculation, the mice were grouped in such a manner that there was substantially no difference in tumor volume between groups, and administration of the test compound was started. The test was conducted with a solvent group and a test compound administration group each having 10 mice. 0.5% methylcellulose (Shin-Etsu Chemical Co., Ltd.) was orally administered to the solvent group, and 0.5% methylcellulose mixed with the test compound was orally administered to the test compound administration group. The administration was performed for 10 days once daily, and the tumor diameter and the body weight were measured twice a week. The following expression was used for calculation of the tumor volume.
[tumor volume (mm^3)]=[tumor major diameter […]]×[tumor minor diameter (mm)]^2×0.5
The relative tumor growth inhibition (%) of the test compound was calculated, where the tumor volume of the solvent group immediately before the start of administration was set to 100% inhibition, and the tumor volume of the solvent group on the day after the last administration was set to 0% inhibition. […] In the table, Ex represents the number of each Example described below.

[1] = system: IL-2 production in Jurkat E6.1 cells; assay: Evaluation of IL-2 production in human T-cell leukemia cell line Jurkat E6.1 (TCR stimulation anti-CD3/anti-CD28); type: cell-based; conditions: Jurkat E6.1, 24 h, concentration at which IL-2 increased to 10 times the solvent control, Jurkat E6.1, anti-CD3/anti-CD28, 24 hours
Procedure: Test Example 2. Evaluation of Il-2 Production in Human T-Cell Leukemia Cell Line Jurkat E6.1
The effect of the test compound on the IL-2 production by T-cell receptor (TCR) stimulation (anti-CD3/anti-CD28) in Jurkat E6.1 cells (ECACC, 88042803) was evaluated.
A 5 μg/mL anti-CD3 antibody (eBioscience, Inc., OKT3 clone) diluted with phosphate buffer saline (PBS) was added to a 96-well plate (Iwaki & Co., Ltd.) at 50 μL/well, and left standing at 4° C. for 12 hours or more to provide an anti-CD3 antibody-coated plate in advance. When the plate was used for experiments, the plate was washed with 200 μL of PBS once, an anti-CD28 antibody (eBioscience, Inc., 28.2 clone) diluted to a concentration of 10 μg/mL with a culture medium (RPMI1640 (Sigma-Aldlich Co. LLC.) containing 10% fetal bovine serum (Hyclone Laboratories, Inc.)) was then added at 10 μL/well, and the plate was used for assay as a culture plate for TCR stimulation.
Subsequently, the test compound was mixed with Jurkat E6.1 cells in such a manner that an intended final concentration was obtained, and the mixture was plated at 90 μL/well so that the number of cells per well was 1×10^5(that is, finally the culture was performed at 1×10^5 cells/100 μL/well). For culture cell conditions, the culture was performed at 37° C. in the presence of 5% CO2 using RPMI1640 medium containing 10% fatal bovine serum.
After 24 hours, the culture supernatant was collected, and IL-2 was quantitatively determined using AlphaLISA human IL2 Immunoassay Research Kit (PerkinElmer, Inc.). The IL-2 measurement was performed under Alpha Screen standard setting conditions (the fluorescence intensity at 570 nm was measured with an excitation wavelength of 680 nm) using EnVision 2104-0010 and EnVision 2104-0020 (PerkinElmer, Inc.). The IL-2 quantitative value of the solvent treatment control was set to 1, and the test compound concentration at which the IL-2 quantitative value of the test compound treatment sample increased to 10 times the IL-2 quantitative value of the control (EC10fold) was calculated by inverse estimation with the aid of Sigmoid-Emax model non-linear regression analysis. […] In the table, Ex represents the number of each Example described below.

human recombinant DGK ξ = human recombinant DGK ξ (Homo sapiens (Human), UniProt Q13574); assay: Evaluation of DGK ξ inhibitory effect (ADP-Glo Kinase Assay); type: biochemical; conditions: ADP-Glo luminescence
Procedure: Test Example 1. Evaluation of DGK ξ Inhibitory Effect
The inhibitory effect of a test compound on human recombinant DGK ξ (Cama Biosciences, Inc., 12-410-20N) was examined by the following method in which detection is performed with ADP-Glo™ Kinase Assay (Promega Corporation).
To a 384-well plate (Greiner Bio-One Co., Ltd.), 3 μL of a DGK ξ enzyme dissolved in an assay buffer (40 mM Tris-HCl pH 7.5, 10 mM MgCl2, 1 mM dithiothreitol (DTT) and 0.1 mg/mL bovine serum albumin (BSA)) (90 ng/mL) was added, and 3 μL of the test compound diluted with the same assay buffer was added so that an intended final concentration was obtained. The mixture was left standing at room temperature for 15 minutes, 3 μL of a substrate (150 μM 1-oleoyl-2-acetyl-sn-glycerol (Sigma-Aldrich Co. LLC), 480 μM phosphatidylserine (Avanti, Inc.) and 150 μM UltraPure-ATP (attached to ADP-Glo)) was then added, and the mixture was left standing at room temperature for 30 minutes to react. Thereafter, 3 μL of an ADP-Glo Reagent was added, and the mixture was left standing at room temperature for 40 minutes to stop the enzyme reaction. Further, 6 μL of a Kinase-Detection Reagent was added, the mixture was left standing at room temperature for 30 minutes, and the luminescence was then measured using ARVO X3 (PerkinElmer, Inc.). The half maximal inhibitory concentration (IC50) was calculated by Sigmoid-Emax model non-linear regression analysis, where the signal value in solvent treatment was set to 0% inhibition and the signal value without addition of the DGK ξ enzyme was set to 100% inhibition. […] In the table. Ex represents the number of each Example described below.

Sequence of human recombinant DGK ξ (Q13574 whole entry): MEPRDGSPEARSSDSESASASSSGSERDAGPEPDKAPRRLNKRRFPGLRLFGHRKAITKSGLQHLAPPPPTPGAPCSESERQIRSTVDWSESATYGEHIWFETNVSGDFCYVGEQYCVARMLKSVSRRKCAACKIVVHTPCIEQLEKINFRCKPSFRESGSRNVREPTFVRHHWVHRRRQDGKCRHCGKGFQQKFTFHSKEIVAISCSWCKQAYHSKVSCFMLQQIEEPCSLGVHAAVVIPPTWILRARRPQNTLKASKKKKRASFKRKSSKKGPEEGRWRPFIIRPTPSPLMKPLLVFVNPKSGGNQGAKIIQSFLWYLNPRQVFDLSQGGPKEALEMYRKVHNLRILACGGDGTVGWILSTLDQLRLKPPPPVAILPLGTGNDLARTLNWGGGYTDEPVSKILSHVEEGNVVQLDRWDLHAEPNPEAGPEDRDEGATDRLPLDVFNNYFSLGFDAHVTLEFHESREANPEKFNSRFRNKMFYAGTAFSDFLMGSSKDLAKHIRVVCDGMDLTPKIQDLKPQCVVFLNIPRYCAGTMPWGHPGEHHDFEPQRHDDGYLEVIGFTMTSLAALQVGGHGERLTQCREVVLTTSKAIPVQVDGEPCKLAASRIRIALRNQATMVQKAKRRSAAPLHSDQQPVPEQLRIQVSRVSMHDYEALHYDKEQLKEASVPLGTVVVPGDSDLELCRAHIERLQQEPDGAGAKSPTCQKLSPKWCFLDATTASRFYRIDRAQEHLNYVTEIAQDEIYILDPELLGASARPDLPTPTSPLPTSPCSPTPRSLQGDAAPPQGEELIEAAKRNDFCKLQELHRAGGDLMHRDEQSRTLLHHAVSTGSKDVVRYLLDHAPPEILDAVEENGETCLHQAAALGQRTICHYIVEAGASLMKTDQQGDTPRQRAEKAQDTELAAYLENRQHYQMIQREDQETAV

pIC50 (human recombinant DGK ξ) | SMILES | inhibition in vivo at 0.03 mg/kg (B16-F1 cells) [%] | EC (10-fold increase) [1] [µM] | inhibition in vivo at 0.3 mg/kg (B16-F1 cells) [%]
 | NC[C@@H]1CCCN(c2c(NC(=O)c3ccn(CC(F)F)n3)ccc(Oc3ccccc3F)c2C(F)(F)F)C1 [Example 1, monohydrochloride] | 35 | 0.11 | 
7.74 | CN1CCN(c2c(NC(=O)c3ccn(CC(F)F)n3)ccc(Oc3ccccc3Cl)c2C(F)(F)F)C[C@@H]1CN [Example 13] |  | 0.34 | 36
7.70 | CN1CCN(c2c(NC(=O)c3ccn(CC(F)F)n3)ccc(Oc3ccccc3Cl)c2Cl)C[C@@H]1CN [Example 20] |  | 0.036 | 33
8.00 | CNC[C@H]1CN(c2c(NC(=O)c3ccn(-c4ccnnc4)n3)ccc(Oc3ccccc3F)c2C(F)(F)F)CCN1C [Example 29, N-[4-(2-fluorophenoxy)-2-{(3S)-4-methyl-3-[(methylamino)methyl]piperazin-1-yl}-3-(trifluoromethyl)phenyl]-1-(pyridazin-4-yl)-1H-pyrazole-3-carboxamide] |  |  | 41
7.92 | NC[C@]1(F)CCCN(c2c(NC(=O)c3ccn(-c4ccnnc4)n3)ccc(Oc3ccccc3F)c2C(F)(F)F)C1 [Example 45] | 30 |  | 
8.17 | CNC[C@@H]1CN(c2c(NC(=O)c3ccn(-c4ccnnc4)n3)ccc(Oc3ccccc3F)c2C(F)(F)F)CCN1C [Example 47] |  |  | 42
8.24 | CNC[C@H]1CN(c2c(NC(=O)c3ccn(-c4ccnnc4)n3)ccc(C3CCCC3)c2C(F)(F)F)CCN1C [Example 48] |  |  | 40
7.35 | N[C@@H]1CCN2CCN(c3c(NC(=O)c4coc(-c5ccnnc5)n4)ccc(Oc4ccccc4F)c3C(F)(F)F)C[C@@H]12 [Example 80] |  | 0.46 | 31
8.54 | CNC[C@H]1CN(c2c(NC(=O)c3ccn(-c4ccnnc4)n3)ccc(Oc3ccccc3F)c2Cl)CCN1C [Example 86, N-[3-chloro-4-(2-fluorophenoxy)-2-{(3S)-4-methyl-3-[(methylamino)methyl]piperazin-1-yl}phenyl]-1-(pyridazin-4-yl)-1H-pyrazole-3-carboxamide] |  |  | 31
7.39 | CN(C)[C@@H]1CCN2CCN(c3c(NC(=O)c4coc(-c5ccnnc5)n4)ccc(OC4CC4)c3C(F)(F)F)C[C@@H]12 [Example 119] |  |  | 
8.37 | CN(C)[C@@H]1CCN2CCN(c3c(NC(=O)c4coc(-c5ccnnc5)n4)ccc(Oc4ccccc4F)c3C(F)(F)F)C[C@@H]12 [Example 120] |  |  | 
7.85 | CN(C)[C@@H]1CCN2CCN(c3c(NC(=O)c4ccn(-c5ccnnc5)n4)ccc(OC4CC4)c3C(F)(F)F)C[C@@H]12 [Example 121] |  |  | 
8.49 | CNC[C@H]1CN(c2c(NC(=O)c3ccn(-c4ccnnc4)n3)ccc(Oc3ccccc3F)c2C(F)(F)F)CCN1C [Example 122, N-[4-(2-fluorophenoxy)-2-{(3S)-4-methyl-3-[(methylamino)methyl]piperazin1-yl}-3-(trifluoromethyl)phenyl]-1-(pyridazin-4-yl)-1H-pyrazole-3-carboxamide monobutanedioate] |  |  | 
8.40 | CNC[C@@H]1CN(c2c(NC(=O)c3ccn(-c4ccnnc4)n3)ccc(Oc3ccccc3F)c2C(F)(F)F)CCN1C [Example 123, N-[4-(2-fluorophenoxy)-2-{(3R)-4-methyl-3-[(methylamino)methyl]piperazin1-yl}-3-(trifluoromethyl)phenyl]-1-(pyridazin-4-yl)-1H-pyrazole-3-carboxamide monobutanedioate] |  |  | 
8.42 | CNC[C@H]1CN(c2c(NC(=O)c3ccn(-c4ccnnc4)n3)ccc(C3CCCC3)c2C(F)(F)F)CCN1C [Example 124] |  |  | 
8.74 | CNC[C@H]1CN(c2c(NC(=O)c3ccn(-c4ccnnc4)n3)ccc(Oc3ccccc3F)c2Cl)CCN1C [Example 125] |  |  | 
8.21 | NC[C@]1(F)CCCN(c2c(NC(=O)c3ccn(-c4ccnnc4)n3)ccc(Oc3ccccc3F)c2C(F)(F)F)C1 [Example 126, N-{2-[(3R)-3-(aminomethyl)-3-fluoropiperidin-1-yl]-4-(2-fluorophenoxy)-3-(trifluoromethyl)phenyl}-1-(pyridazin-4-yl)-1H-pyrazole-3-carboxamide monobutanedioate] |  |  | 
